According to US20040115706A1, “High-throughput methods for identifying quadruplex forming nucleic acids and modulators thereof” (priority 2002, published 2004):

What was measured:
Assay type in all cases: binding
[1] = system: quadruplex nucleic acid QB-1; test: Competition of test molecules with NMM for quadruplex nucleic acid QB-1; conditions: QB-1 5 μM, NMM 3 μM; FIG. 3
Description: Test molecules were mixed with the quadruplex nucleic acid QB-1 in a 96-well plate and fluorescence backgrounds were monitored under the conditions specified in Example 1. NMM was then added to wells in the 96-well plate to a final concentration of 3 μM. Fluorescence of NMM was measured at an excitation wavelength of 420 nm and an emission wavelength of 660 nm using a FluoStar 2000 fluorometer (BMG Labtechnologies, Durham, N.C.). Maximum fluorescent signals for NMM were assessed in the absence of the test molecules. Fluorescence was plotted as a function of the concentration of three test molecules with constant concentrations of QB-1 (5 μM) and NMM (3 μM)(FIG. 3). The test compounds were telomestatin, QQ28, and serinodisaphyrin (see, e.g., Shin-ya et al., J. Am. Chem. Soc. 123:1262 (2001); Duan et al., Mol. Cancer Therapeutics 1:103 (2001)).

[2] = Identification of quadruplex forming nucleic acids by probing with NMM; conditions: for interaction with NMM (quadruplex forming profile): 3 μM NMM, FIG. 2E; for capability of forming a quadruplex structure: 0.1 to 10 μM test nucleic acid probed with 3 μM NMM, FIG. 2C
Description: (§1) A typical assay was carried out in 100 μl of 20 mM HEPES buffer, pH 7.0, 140 mM NaCl, and 100 mM KCl. Fifty μl of quadruplex nucleic acid or a nucleic acid not capable of forming a quadruplex were added in 96-well plate. 50 μl of signal molecule was then added for a final concentration of 3 μM. N-methylmesoporphyrin IX (NMM) and meso-tetrakis(N-methyl-4-pyridyl)porphine (TMPyP4) were tested as signal molecules. Fluorescence was measured at an excitation wavelength of 420 nm and an emission wavelength of 660 nm for each of these signal molecules using a FluoStar 2000 fluorometer (BMG Labtechnologies, Durham, N.C.). NMM and TMPyP4 were obtained from Frontier Scientific Inc, Logan, Utah. Fluorescence was plotted as a function of concentration of nucleic acid added to the system at a constant 3 μM concentration of NMM (FIG. 2A) or TMPyP4 (FIG. 2B).
In this study, several oligonucleotides were analyzed to determine which of them were capable of forming quadruplex structures. The oligonucleotides in Table 2 were synthesized by Applied Biosystems (Foster City, Calif.).
FIG. 2E depicts quadruplex forming profiles for oligonucleotides QB-1 and QB-11 to QB-25.

[3] = system: non-quadruplex nucleic acid QB-2; test: Signal molecule fluorescence assay with nucleic acid not capable of forming a quadruplex; conditions: 3 μM signal molecule; excitation 420 nm, emission 660 nm; FIG. 2A/2B
Description: as §1

[4] = system: quadruplex nucleic acid QB-1; test: Signal molecule fluorescence assay with quadruplex nucleic acid; conditions: for fluorescent signal / interaction with quadruplex nucleic acid QB-1: 3 μM signal molecule, excitation 420 nm, emission 660 nm, FIG. 2A/2B
Description: as §1, with “Fifty” for “A typical assay was carried out in 100 μl of 20 mM HEPES buffer, pH 7.0, 140 mM NaCl, and 100 mM KCl. Fifty”

[5] = system: ds DNA pGL3; test: EB competition with NMM or TMPyP4 for ds DNA; conditions: 6.5 μg/μl pGL3; presence or absence of EB; FIG. 4C
Description: Next, the effect of EB competition with NMM or TMPyP4 for ds DNA was assessed. The assay was carried out as described in the previous paragraph, with 6.5 μg/μl pGL3, and the results were graphically compiled in FIG. 4C.
pGL3 was purchased from Promega, Madison, Wis. pGL3/myc included the nuclease hypersensitive element (NHE) MYC8 fragment from the proximal region of human c-MYC. pGL3/myc was constructed by cloning the MYC8 fragment from human genomic DNA (Promega, Madison, Wis.) and inserting that fragment into the multiple cloning site of the pGL3 vector via Nhe I and Bgl II digestion and ligation. The MYC8 fragment (840 bp) was cloned from human genomic DNA using two primer oligonucleotides. The sense strand primer oligonucleotide for the c-MYC regulatory region had the nucleotide sequence 5′-[…]-3′ (SEQ ID NO: 36; Nhe I site is underlined), which corresponded to site 1993 in the sense strand GenBank sequence. The antisense primer had the nucleotide sequence 5′-[…]-3′ (SEQ ID NO: 37; Bgl II site is underlined), which corresponded to site 2833 in the sense strand GenBank sequence. The Genbank sequence was the Homo sapiens MYC gene, c-myc proto-oncogene and ORF1, Length=10996 (http address: www.ncbi.nlm.nih.gov/entrez/query.fcgi?cmd=Retrieve&db=nucleotide&list_uids=188965&dopt=GenBank). The construct was confirmed by sequencing.

[6] = system: ss DNA QB-1; test: Specificity of signal molecules for single-stranded DNA; conditions: 3 μM NMM (FIG. 4A) or 3 μM EB (FIG. 4B)
Description: (§2) The specificity of signal molecules NMM and ethidium bromide was assessed with respect to single-stranded (ss) DNA and double-stranded (ds) DNA. Fluorescence was plotted as a function of the concentration of ss DNA QB-1 or ds DNAs pGL3E or pGL3E/myc, under conditions of 3 μM NMM (FIG. 4A) or 3 μM EB (FIG. 4B). Fluorescence of NMM was measured as described in Example 1. Fluorescence of EB was measured at an excitation wavelength of 485 nm and an emission wavelength 590 nm using a FluoStar 2000 fluorometer (BMG Labtechnologies, Durham, N.C.). Ethidium bromide (EB) was obtained from Calbiochem, San Diego, Calif.

[7] = system: ds DNAs pGL3E or pGL3E/myc; test: Specificity of signal molecules for double-stranded DNA; conditions: 3 μM NMM (FIG. 4A) or 3 μM EB (FIG. 4B)
Description: as §2
pGL3 was purchased from Promega, Madison, Wis. pGL3/myc included the nuclease hypersensitive element (NHE) MYC8 fragment from the proximal region of human c-MYC. pGL3/myc was constructed by cloning the MYC8 fragment from human genomic DNA (Promega, Madison, Wis.) and inserting that fragment into the multiple cloning site of the pGL3 vector via Nhe I and Bgl II digestion and ligation. The MYC8 fragment (840 bp) was cloned from human genomic DNA using two primer oligonucleotides. The sense strand primer oligonucleotide for the c-MYC regulatory region had the nucleotide sequence 5′-[…]-3′ (SEQ ID NO: 36; Nhe I site is underlined), which corresponded to site 1993 in the sense strand GenBank sequence. […]

serinodisaphyrin
affinity of interaction with the quadruplex DNA (competition with NMM) [1]: intermediate affinity | identification as quadruplex interacting molecule [1]: identified as quadruplex interacting molecules

QB-25: 5′-CCTTCCCCACCCTCCCCACCCTCCCCA-3′, SEQ ID NO 35, c-MYC (DNA, backbone and methylation of C not given here)
interaction with NMM (quadruplex forming profile) [2]: did not appreciably interact with NMM

C[n+]1ccc(-c2c3nc(c(-c4cc[n+](C)cc4)c4ccc([nH]4)c(-c4cc[n+](C)cc4)c4nc(c(-c5cc[n+](C)cc5)c5ccc2[nH]5)C=C4)C=C3)cc1 [TMPyP4, meso-tetrakis(N-methyl-4-pyridyl)porphine]
fluorescent signal / interaction with non-quadruplex nucleic acid QB-2 [3]: varied significantly | change of emitted signal with increasing quadruplex nucleic acid concentrations ([4]; 3 μM TMPyP4, FIG. 2B, likely due to quenching): decreased with increasing quadruplex nucleic acid concentrations | fluorescent signal / interaction with quadruplex nucleic acid QB-1 [4]: varied significantly | interaction with ds DNA [5]: did interact with ds DNA

CCC1=C(C)c2cc3[nH]c(cc4nc(cc5c(CCC(=O)O)c(C)c(cc1n2)n5C)C(CCC(=O)O)=C4C)c(C)c3CC [NMM, N-methylmesoporphyrin IX]
fluorescent signal / interaction with non-quadruplex nucleic acid QB-2 [3]: did not interact appreciably | fluorescent signal / interaction with quadruplex nucleic acid QB-1 [4]: interacted with quadruplex nucleic acid QB-1 | stabilization of quadruplex structure ([4]; without the addition of potassium ions, FIG. 2A): could stabilize quadruplex structure without the addition of potassium ions | interaction with single-stranded DNA [6]: interacted with ssDNA | interaction with ds DNA [5]: did not interact with ds DNA | interaction with double-stranded DNA [7]: did not interact appreciably with ds DNA

QB-1: 5′-AGGGTGGGGAGGGTGGGGAA-3′, SEQ ID NO 17, c-MYC (DNA, backbone not given here)
capability of forming a quadruplex structure [2]: capable of forming a quadruplex structure

QB-20: 5′-GTGGTGGGTGGGTGGGT-3′, SEQ ID NO 30, T30177 (DNA, backbone not given here)
interaction with NMM (quadruplex forming profile) [2]: interacted most significantly

QB-10: 5′-GGTTGGTGTGGTTGG-3′, SEQ ID NO 20, intramolecular edge, or chair structure (DNA, backbone not given here)
capability of forming a quadruplex structure [2]: capable of forming a quadruplex structure

QB-9: 5′-GGGGTTTTGGGG-3′, SEQ ID NO 19, dimers for quadruplex of basket or crossover structure (DNA, backbone not given here)
capability of forming a quadruplex structure [2]: capable of forming a quadruplex structure

QB-23: 5′-CGCTTGATGAGTCAGCCGGAA-3′, SEQ ID NO 33, AP-1 (DNA, backbone and methylation of C not given here)
interaction with NMM (quadruplex forming profile) [2]: did not appreciably interact with NMM
